In publication PMC7032255 (Asian Journal of Pharmaceutical Sciences, 2018):
Entries after “also recorded” stand apart in the source; their conditions may differ. Read-outs that look alike come from different tables or passages of the source.

Key:
[1] = in human; parent drug versus its prodrug LY2140023; cited from earlier work
[2] = background value, no reference given; cited from earlier work
[3] = cited from earlier work; for oral bioavailability of cytarabine: cytarabine versus its L-valyl prodrug valcytarabine
hPEPT1 = biological target: T1, hPEPT1 (Homo sapiens, UniProt P46059); assay: Uptake by MDCK-hPEPT1 cells versus MDCK mock cells; format: cell-based; settings: Fig. 6A
T1 sequence (P46059 1-708): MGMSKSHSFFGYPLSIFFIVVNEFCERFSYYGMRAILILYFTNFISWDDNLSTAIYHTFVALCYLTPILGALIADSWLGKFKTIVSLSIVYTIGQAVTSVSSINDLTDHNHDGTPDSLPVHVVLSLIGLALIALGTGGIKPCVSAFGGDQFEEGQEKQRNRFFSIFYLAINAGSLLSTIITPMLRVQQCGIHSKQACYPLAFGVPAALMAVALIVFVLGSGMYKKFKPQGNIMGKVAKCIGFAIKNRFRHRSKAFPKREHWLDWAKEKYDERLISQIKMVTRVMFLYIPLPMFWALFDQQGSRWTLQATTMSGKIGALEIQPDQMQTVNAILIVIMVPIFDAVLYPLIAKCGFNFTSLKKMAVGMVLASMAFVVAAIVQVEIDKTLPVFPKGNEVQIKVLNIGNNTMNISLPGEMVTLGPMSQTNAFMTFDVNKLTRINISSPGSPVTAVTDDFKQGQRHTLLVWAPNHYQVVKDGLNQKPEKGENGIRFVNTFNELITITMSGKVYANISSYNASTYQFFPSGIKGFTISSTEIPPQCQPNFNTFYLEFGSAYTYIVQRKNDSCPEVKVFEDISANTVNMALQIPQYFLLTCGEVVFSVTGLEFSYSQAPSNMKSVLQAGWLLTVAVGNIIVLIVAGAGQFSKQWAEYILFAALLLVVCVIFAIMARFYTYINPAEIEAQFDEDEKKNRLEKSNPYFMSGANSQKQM

[4] = rat plasma, intravenous injection 8 mg/kg
[5] = rat plasma, oral administration, 160 mg/kg calculated as peramivir

Compound: N[C@@]1(C(=O)O)CS(=O)(=O)[C@H]2[C@H](C(=O)O)[C@H]21 [LY404039]
- oral bioavailability of the parent drug LY404039 [1]: 6.0%

Compound: CSCC[C@H](N)C(=O)N[C@@]1(C(=O)O)CS(=O)(=O)[C@H]2[C@H](C(=O)O)[C@H]21 [LY2140023]
- oral bioavailability of the parent drug LY404039 [1]: 68.0%

Compound: CCC(CC)[C@H](NC(C)=O)[C@@H]1[C@H](O)[C@@H](C(=O)O)C[C@H]1N=C(N)N [Peramivir]
- log P [2]: −1.4
- oral bioavailability ([3]; peramivir given orally, background value, reference not given): 3%
- AUC0-∞ of peramivir [4]: 3604.8 ng·h/mL
- t1/2 of peramivir [4]: 3.9 h
- AUC0-∞ of peramivir [5]: 2955.9 ng·h/mL
- Cmax of peramivir [5]: 771.6 ± 278.3 ng/mL
- Tmax of peramivir [5]: 1.0 h
- t1/2 of peramivir [5]: 3.2 h
- F, absolute oral bioavailability of peramivir (rat, oral 160 mg/kg calculated as peramivir versus i.v. peramivir 8 mg/kg): 4.1%
- PEPT1-mediated transport (uptake in MDCK-hPEPT1 versus mock cells) (hPEPT1): no PEPT1-mediated transport; also recorded: not (statistically) significant different between MDCK-hPEPT1 and MDCK mock cells

Compound: Nc1ccn([C@@H]2O[C@H](CO)[C@@H](O)[C@@H]2O)c(=O)n1 [cytarabine]
- oral bioavailability of cytarabine [3]: 21.8%

Compound: CC(C)C(N)C(=O)OCC1OC(n2ccc(N)nc2=O)C(O)C1O (centres unmarked) [valcytarabine]
- oral bioavailability of cytarabine [3]: 60.0%
